Columns and labels:
[1] = test system: tau tangles/Aβ plaques on AD brain sections; assay: Assay 1: direct staining of human Alzheimer's disease brain sections (fluorescence); assay type: binding; parameters: key to Direct staining of tau tangles/Aβ plaques on AD brain sections at 100 μM / Direct staining of tau tangles on AD brain sections at 100 μM / Direct staining of Aβ plaques on AD brain sections at 100 μM / Direct staining of tau tangles on AD brain sections (footnote a: at 250 μM): − (No); +++ (strong); ++ (good); + (weak); conditions: tangles; for Direct staining of tau tangles on AD brain sections at 100 μM: 100 μM compound
How it was run: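 Compounds (100 μM, 50% aqueous ethanol, 20 min, RT, dark) applied directly to fixed […] frozen amygdala sections of Braak stage V-VI Alzheimer's brains. After washing and 0.1% Sudan Black treatment against autofluorescence, sections were imaged microscopically for fluorescent staining.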

[2] = molecular target: T1, in vitro aggregated Abeta1-42 (Homo sapiens, UniProt P05067); assay: Assay 2 (filter trap): [3H]RefA competition and Ki on aggregated Abeta1-42 (selectivity tau versus Abeta); assay type: binding; conditions: Table 24; fold increase of the Ki on aggregated Abeta1-42 versus PHF
T1 construct: Abeta1-42 (Bachem, Switzerland) peptide films were re-suspended in 1% DMSO; purchased Bachem, Switzerland
Procedure: Recombinant human full-length Tau441 (flTau) was expressed in bacteria and purified in the laboratory of Professor Hilal Lashuel (EPFL, Switzerland). A solution of 8 μM (400 μg/mL) flTau in PBS, 10 μM DTT and 5 μM heparin (all from Sigma-Aldrich) was gently mixed (cradled) for 3 days at 37° C. Cradled flTau aggregates were used at a final concentration of 20 μg/mL in all binding assays. Abeta1-42 (Bachem, Switzerland) peptide films were re-suspended in 1% DMSO and diluted in PBS to a 33 μM (150 μg/mL) suspension that was sonicated until complete dissolution. Aggregation process was done at 37° C. for 24 hours. Aggregated Abeta1-42 was used at a concentration of 20 μg/mL in all binding assays.
AD brain-enriched PHF diluted 1/80 were incubated in the presence of [^3H]RefA at 10 nM and the example compounds of this invention at 2.5 μM (250× excess), for 45 minutes at 37° C. Samples were then analyzed by on GF/B filter plates as described above (in the section “[^3H]RefA radio-binding assay and determination of the dissociation constant (Kd)). Non-specific signal was determined again with an excess of un-labeled RefA and specific binding calculated by subtracting the non-specific signal from the total signal. […]

T1 sequence (P05067 672-713 limits assumed): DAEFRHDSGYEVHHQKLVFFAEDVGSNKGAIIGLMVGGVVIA

| Fold increase on Abeta1-42 vs PHF [2] | Compound | Direct staining of tau tangles on AD brain sections at 100 μM [1] | Direct staining of tau tangles on AD brain sections (footnote a: at 250 μM) ([1]; 250 μM compound) |
| --- | --- | --- | --- |
| 200 | Cn1c2ccncc2c2ccc(Nc3ccc(OC(F)F)cc3)nc21 [Example 9] | ++ (tangles) |  |
|  | Cn1c2ccncc2c2ccc(Nc3ccc(F)c(F)c3)nc21 [Example 2] |  | + (tangles)^a |
| 0.5 | Cn1c2ccncc2c2ccc(Nc3cccc(OCCF)c3)nc21 [Example 8] | ++ (tangles) |  |
